In patent publication US12091405B2, “Substituted pyrazole compounds as indoleamine 2,3-dioxygenase inhibitors” (Merck Sharp & Dohme LLC, priority 2018, dated 2024):

biological target: IDO1 (Homo sapiens, UniProt P14902); test: IDO1 Cellular Assay in HeLa Cells Stimulated with IFNγ; assay type: cell-based; conditions: IFNγ 100 ng/mL, 300 uM L-tryptophan, about 48 hours, fluorescence readout, read-out: IDO1 HELA Cell Assay, IC50
Procedure: Biological Assays IDO1 Cellular Assay in HeLa Cells Stimulated with IFNγ
HeLa cells were cultured in complete HeLa culture medium (90% EMEM, 10% heat-inactivated fetal bovine serum) and expanded to about 1×10^9 cells. The cells were then collected and frozen down at 1×10^7 cells/vial in 1 mL frozen medium (90% complete HeLa culture medium, 10% DMSO).
Compounds to be tested were serially diluted in ten 3-fold steps in DMSO starting from 10 mM DMSO stocks in Echo low volume plate(s). Compound dilutions or DMSO alone were then dispensed from the dilution plate(s) into Greiner black 384-well assay plate(s) (catalog #781086, 50 nL/well) using an Echo 550 acoustic liquid handler (Labcyte).
Frozen HeLa cells were thawed and transferred into HeLa assay medium (99% complete HeLa culture medium, 1% Pen/Strep) with 20 mL medium/vial of cells. The cells were spun down at 250 g in a table top centrifuge for 5 min and suspended in same volume of HeLa assay medium. The cells were then counted and adjusted to a density of 2×10^5 cells/mL in HeLa assay medium. Sterile L-tryptophan were added to the cells with final concentration of 300 uM L-tryptophan. A small aliquot (2 mL/plate) of HeLa cells were set aside and were not treated with IFNγ, to serve as the Max-E control.
HeLa cells with and without IFNγ were dispensed to the respective wells of 384-well assay plates containing the compounds. The plates were incubated for about 48 hours at a 37° C., 5% CO2 incubator. Afterwards, 12 μL of 0.5 M methyl isonipecotate in dimethyl sulfoxide were added into each well and the plates were sealed and incubated at 37° C. without CO2 overnight. The plates were centrifuged for 1 min at 200×g. The resulting fluorescence was measured in a Spectramax plate reader (Molecular Devices) with a 400 nm excitation filter and a 510 nm emission filter.
The fluorescence intensity of each well was corrected for the background observed in wells with non-IFNγ-treated cells and was expressed as a fraction of the intensity observed in wells of IFNγ-treated cells and DMSO only. Potencies were calculated by linear least squares fit to the four parameter logistic IC50 equation.
Compounds disclosed herein generally have IC50 of about 0.1 nM to about 20,000 nM, or more specifically, about 1 nM to about 10,000 nM, or more specifically, about 5 nM to about 5,000 nM, or more specifically, about 10 nM to about 1,000 nM, or still more specifically, about 10 nM to about 500 nM.

Chain of IDO1 (P14902 whole entry): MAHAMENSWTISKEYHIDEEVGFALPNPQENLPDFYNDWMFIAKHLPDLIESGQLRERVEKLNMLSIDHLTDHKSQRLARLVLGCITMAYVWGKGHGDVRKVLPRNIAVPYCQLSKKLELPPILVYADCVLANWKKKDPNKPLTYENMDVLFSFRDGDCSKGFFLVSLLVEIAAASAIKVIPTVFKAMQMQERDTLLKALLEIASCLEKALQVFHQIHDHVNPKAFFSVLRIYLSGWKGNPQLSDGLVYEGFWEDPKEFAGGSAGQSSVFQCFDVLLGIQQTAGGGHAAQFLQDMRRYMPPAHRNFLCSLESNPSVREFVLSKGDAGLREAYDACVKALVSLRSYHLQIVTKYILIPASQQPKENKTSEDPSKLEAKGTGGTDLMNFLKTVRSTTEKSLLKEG

Going from `C[C@@H]1CN(C(=O)c2nn(CC(=O)N3CCC(c4ccc(C(F)F)cc4F)CC3)c3c2CCC3)C[C@H](C)O1` [Example 142, 1-{4-[4-(difluoromethyl)-2-fluorophenyl]piperidin-1-yl}-2-{3-[(2R,6S)-2,6-dimethylmorpholine-4-carbonyl]-5,6-dihydrocyclopenta[c]pyrazol-1(4H)-yl}ethan-1-one] to `Cc1ccc(C2CCN(C(=O)Cn3nc(C(=O)N4C[C@@H](C)O[C@@H](C)C4)c4c3CCC4)CC2)cc1F` [Example 91, 2-{3-[(2R,6S)-2,6-dimethylmorpholine-4-carbonyl]-5,6-dihydrocyclopenta[c]pyrazol-1(4H)-yl}-1-[4-(3-fluoro-4-methylphenyl)piperidin-1-yl]ethan-1-one], the IC50 falls from 99.5 nM to 11.9 nM (8.4-fold). The second is the more potent here.

`COc1c(C)cc(C2CCN(C(=O)Cn3nc(C(=O)N4C[C@@H](C)O[C@@H](C)C4)c4c3CCC4)CC2)cc1C` [Example 102, 2-{3-[(2R,6S)-2,6-dimethylmorpholine-4-carbonyl]-5,6-dihydrocyclopenta[c]pyrazol-1(4H)-yl}-1-[4-(4-methoxy-3,5-dimethylphenyl)piperidin-1-yl]ethan-1-one] and `C[C@@H]1CN(C(=O)c2nn(CC(=O)N3CCC(c4cccc(Cl)c4)CC3)c3c2CCC3)C[C@H](C)O1` [Example 107, 1-[4-(3-chlorophenyl)piperidin-1-yl]-2-{3-[(2R,6S)-2,6-dimethylmorpholine-4-carbonyl]-5,6-dihydrocyclopenta[c]pyrazol-1(4H)-yl}ethan-1-one] are within 1.5-fold of each other in IC50: 28.9 nM for the first, 31.5 nM for the second.

Going from `C[C@@H]1CN(C(=O)c2nn(CC(=O)N3CCC(c4cccc(C5CC5)c4)CC3)c3c2CCC3)C[C@H](C)O1` [Example 103, 1-[4-(3-cyclopropylphenyl)piperidin-1-yl]-2-{3-[(2R,6S)-2,6-dimethylmorpholine-4-carbonyl]-5,6-dihydrocyclopenta[c]pyrazol-1(4H)-yl}ethan-1-one] to `C[C@@H]1CN(C(=O)c2nn(CC(=O)N3CCC(c4ccc(C5CC5)cc4)CC3)c3c2CCC3)C[C@H](C)O1` [Example 131, 1-[4-(4-cyclopropylphenyl)piperidin-1-yl]-2-{3-[(2R,6S)-2,6-dimethylmorpholine-4-carbonyl]-5,6-dihydrocyclopenta[c]pyrazol-1(4H)-yl}ethan-1-one], the IC50 rises from 29.6 nM to 77.9 nM (2.6-fold). The first is the more potent here.

First: C[C@@H]1CN(C(=O)c2nn(CC(=O)N3CCC(c4cccc5ccsc45)CC3)c3c2CCC3)C[C@H](C)O1 [Example 84, 1-[4-(benzothiophen-7-yl)-1-piperidyl]-2-[3-[(2S,6R)-2,6-dimethylmorpholine-4-carbonyl]-5,6-dihydro-4H-cyclopenta[c]pyrazol-2-ium-1-yl]ethanone;2,2,2-trifluoroacetate]
Second: C[C@@H]1CN(C(=O)c2nn(CC(=O)N3CCC(c4c(F)ccc(F)c4F)CC3)c3c2CCC3)C[C@H](C)O1 [Example 152, 2-{3-[(2R,6S)-2,6-dimethylmorpholine-4-carbonyl]-5,6-dihydrocyclopenta[c]pyrazol-1(4H)-yl}-1-[4-(2,3,6-trifluorophenyl)piperidin-1-yl]ethan-1-one]
The IC50 of the first is 27-fold lower: 4.7 nM for the first, 126 nM for the second.

Compared with `Cc1cccc(C2CCN(C(=O)Cn3nc(C(=O)N4CCN(C(=O)CO)CC4)c4c3CCC4)CC2)c1C` [Example 47, 1-(4-(2,3-dimethylphenyl)piperidin-1-yl)-2-(3-(4-(2-hydroxyacetyl)piperazine-1-carbonyl)-5,6-dihydrocyclopenta[c]pyrazol-1(4H)-yl)ethanone], `Cc1cccc(C2CCN(C(=O)Cn3nc(C(=O)N4CC[C@@H](O)[C@H](F)C4)c4c3CCC4)CC2)c1C` [Example 45, 1-(4-(2,3-dimethylphenyl)piperidin-1-yl)-2-(3-((3R,4R)-3-fluoro-4-hydroxypiperidine-1-carbonyl)-5,6dihydrocyclopenta[c]pyrazol-1(4H)-yl)ethanone] is 2.2-fold lower in IC50: 17.6 nM for the first, 8.1 nM for the second. The second is the more potent here.
